The values below come from US20260070945A1, “MACROCYCLIC IMMUNOMODULATORS” (Bristol-Myers Squibb Company, priority 2022, published 2026).

As a reminder, the IC50 is the concentration needed to halve the response being measured.

*1 amine or outer side, *2 acyl side, *3 side chain or, on linkers, in order; H or OH if unused. Where a SMILES comes first, the peptide text is derived from it. Bridges are numbered along the chain shown (N, C = ends). [ ]: non-standard residue; d: D form. The star is where a group is joined. ξ: configuration not given here. Phe(3-CF3) = N[C@@H](Cc1cccc(C(F)(F)F)c1)C(=O)O; Ala(morpholin-4-yl) = N[C@@H](CN1CCOCC1)C(=O)O; Phe(4-COOH) = N[C@@H](Cc1ccc(C(=O)O)cc1)C(=O)O; Bip = N[C@@H](Cc1ccc(-c2ccccc2)cc1)C(=O)O; γGlu = O=C(O)[C@H](CCC(=O)[*:2])N[*:1]; NH(CH2)12COOH = O=C(O)CCCCCCCCCCCCN*; ξγGlu = O=C(O)C(CCC(=O)[*:2])N[*:1]; Val(3-OH) = CC(C)(O)[C@H](N)C(=O)O; Cha = N[C@@H](CC1CCCCC1)C(=O)O; Cit = NC(=O)NCCC[C@H](N)C(=O)O; Carboxymethyl = O=C(O)C*; NMeA = CN[C@@H](C)C(=O)O; Dab = NCC[C@H](N)C(=O)O; AEEA = NCCOCCOCC(=O)O

The target in the experiment is T1, PD-1/PD-L1 interaction (PE-labeled human PD-L1-Ig binding to Jurkat cell line over-expressing human PD-1) (Homo sapiens, UniProt Q15116).
T1 construct: expressed in transfected cells; host or cells: Jurkat
T1 sequence (Q15116 25-288): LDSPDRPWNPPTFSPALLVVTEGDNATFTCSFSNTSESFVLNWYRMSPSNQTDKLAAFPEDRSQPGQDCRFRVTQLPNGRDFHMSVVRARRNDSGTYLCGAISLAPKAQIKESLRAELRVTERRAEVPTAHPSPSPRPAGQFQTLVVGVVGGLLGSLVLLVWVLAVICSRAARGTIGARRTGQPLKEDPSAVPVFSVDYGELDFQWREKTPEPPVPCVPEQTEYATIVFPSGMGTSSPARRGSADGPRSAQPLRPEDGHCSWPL
The experiment in a line: Jurkat-PD-1 Cell Binding High-Content Screening Assay (CBA). Particulars: Jurkat-hPD-1 cells, PE-labeled PD-L1-Ig 20 nM final; read-out: Jurkat HPD1 PDL1 IC50. A digest of the protocol: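 Cells 8×10^3/well, DMEM + 10% FCS; cpd 2 h, 37 °C; PE–PD-L1-Ig 20 nM final, 1 h; PFA fix + Hoechst 33342, 3× dPBS wash; high-content imager.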
Turning to `COC[C@@H]1NC(=O)CSC[C@@H](C(=O)N[C@@H](CCN)C(=O)NCCOCCOCC(=O)N[C@@H](CCC(=O)NCCOCCOCC(=O)NCCCCCCCCCCCCC(=O)O)C(=O)O)NC(=O)[C@H](CCC(=O)O)NC(=O)[C@H](C(C)C)NC(=O)[C@H](CC2CCCCC2)NC(=O)[C@H](CCN)NC(=O)[C@@H](CC(C)C)NC(=O)[C@H](C)N(C)C(=O)[C@H](Cc2ccc(C(=O)O)cc2)NC(=O)[C@H](Cc2ccc(-c3ccccc3)cc2)NC(=O)[C@H](Cc2ccc(C(=O)O)cc2)NC(=O)[C@H](Cc2cccc(C(F)(F)F)c2)NC(=O)[C@H](CC(=O)O)NC(=O)[C@H](Cc2ccc(OCC(=O)O)cc2)NC1=O` [Example 1169] ({CH2CO}-S(Me)Y(Carboxymethyl)D[Phe(3-CF3)][Phe(4-COOH)][Bip][Phe(4-COOH)][NMeA][dL][Dab][Cha]VEC[Dab][AEEA][γGlu][AEEA]-{NH(CH2)12COOH}; thioether N-14), the IC50 came out at 60.6 nM.

For `COC[C@@H]1NC(=O)CSC[C@@H](C(=O)N[C@@H](CCN)C(=O)NCCOCCOCC(=O)N[C@@H](CCC(=O)NCCOCCOCC(=O)NCCCCCCCCCCCCC(=O)O)C(=O)O)NC(=O)[C@H](CO)NC(=O)[C@H](C(C)(C)O)NC(=O)[C@H](CC2CCCCC2)NC(=O)[C@H](CCN)NC(=O)[C@@H](CC(C)C)NC(=O)[C@H](C)N(C)C(=O)[C@H](Cc2ccc(C(=O)O)cc2)NC(=O)[C@H](Cc2ccc(-c3ccccc3)cc2)NC(=O)[C@H](Cc2ccc(C(=O)O)cc2)NC(=O)[C@H](Cc2cccc(C(F)(F)F)c2)NC(=O)[C@H](CC(=O)O)NC(=O)[C@H](Cc2ccc(OCC(=O)O)cc2)NC1=O` [Example 1170] ({CH2CO}-S(Me)Y(Carboxymethyl)D[Phe(3-CF3)][Phe(4-COOH)][Bip][Phe(4-COOH)][NMeA][dL][Dab][Cha][Val(3-OH)]SC[Dab][AEEA][γGlu][AEEA]-{NH(CH2)12COOH}; thioether N-14), the 50% inhibitory concentration (IC50) amounted to 54 nM.

On to `CC(C)C[C@H]1NC(=O)[C@H](C)N(C)C(=O)[C@H](CCC(N)=O)NC(=O)[C@H](Cc2ccc(-c3ccccc3)cc2)NC(=O)[C@H](Cc2ccc(C(=O)O)cc2)NC(=O)[C@H](Cc2cccc(C(F)(F)F)c2)NC(=O)[C@H](CC(=O)O)NC(=O)[C@H](Cc2ccc(OCC(=O)O)cc2)NC(=O)[C@H](CN2CCOCC2)NC(=O)CSC[C@@H](C(=O)N[C@@H](CCN)C(=O)NCCOCCOCC(=O)N[C@@H](CCC(=O)NCCOCCOCC(=O)NCCCCCCCCCCCCC(=O)O)C(=O)O)NC(=O)[C@H](CC(=O)O)NC(=O)[C@H](C(C)(C)O)NC(=O)[C@H](CC2CCCCC2)NC(=O)[C@H](CCN)NC1=O` [Example 1171] ({CH2CO}-[Ala(morpholin-4-yl)]Y(Carboxymethyl)D[Phe(3-CF3)][Phe(4-COOH)][Bip]Q[NMeA][dL][Dab][Cha][Val(3-OH)]DC[Dab][AEEA][γGlu][AEEA]-{NH(CH2)12COOH}; thioether N-14), for which the IC50 came out at 41.2 nM.

Regarding `CC(C)C[C@H]1NC(=O)[C@H](C)N(C)C(=O)[C@H](CCC(N)=O)NC(=O)[C@H](Cc2ccc(-c3ccccc3)cc2)NC(=O)[C@H](Cc2ccc(C(=O)O)cc2)NC(=O)[C@H](Cc2cccc(C(F)(F)F)c2)NC(=O)[C@H](CC(=O)O)NC(=O)[C@H](Cc2ccc(OCC(=O)O)cc2)NC(=O)[C@H](CN2CCOCC2)NC(=O)CSC[C@@H](C(=O)N[C@@H](CCN)C(=O)NCCOCCOCC(=O)N[C@@H](CCC(=O)NCCOCCOCC(=O)NCCCCCCCCCCCCC(=O)O)C(=O)O)NC(=O)[C@H](CO)NC(=O)[C@H](C(C)(C)O)NC(=O)[C@H](CC2CCCCC2)NC(=O)[C@H](CCN)NC1=O` [Example 1173] ({CH2CO}-[Ala(morpholin-4-yl)]Y(Carboxymethyl)D[Phe(3-CF3)][Phe(4-COOH)][Bip]Q[NMeA][dL][Dab][Cha][Val(3-OH)]SC[Dab][AEEA][γGlu][AEEA]-{NH(CH2)12COOH}; thioether N-14), the half-inhibitory concentration (IC50) amounted to 21.5 nM.

As to `CC(=O)NCCCC[C@@H]1NC(=O)[C@H](C(C)(C)O)NC(=O)[C@H](CC2CCCCC2)NC(=O)[C@H](CCN)NC(=O)[C@@H](CC(C)C)NC(=O)[C@H](C)N(C)C(=O)[C@H](CCC(N)=O)NC(=O)[C@H](Cc2ccc(-c3ccccc3)cc2)NC(=O)[C@H](Cc2ccc(C(=O)O)cc2)NC(=O)[C@H](Cc2cccc(C(F)(F)F)c2)NC(=O)[C@H](CC(=O)O)NC(=O)[C@H](Cc2ccc(OCC(=O)O)cc2)NC(=O)[C@H](CN2CCOCC2)NC(=O)CSC[C@@H](C(=O)N[C@@H](CCN)C(=O)NCCOCCOCC(=O)N[C@@H](CCC(=O)NCCOCCOCC(=O)NCCCCCCCCCCCCC(=O)O)C(=O)O)NC1=O` [Example 1174] ({CH2CO}-[Ala(morpholin-4-yl)]Y(Carboxymethyl)D[Phe(3-CF3)][Phe(4-COOH)][Bip]Q[NMeA][dL][Dab][Cha][Val(3-OH)]K(Ac)C[Dab][AEEA][γGlu][AEEA]-{NH(CH2)12COOH}; thioether N-14), the 50% inhibitory concentration (IC50) amounted to 23.4 nM.

`CC(C)C[C@H]1NC(=O)[C@H](C)N(C)C(=O)[C@H](CCCNC(N)=O)NC(=O)[C@H](Cc2ccc(-c3ccccc3)cc2)NC(=O)[C@H](Cc2ccc(C(=O)O)cc2)NC(=O)[C@H](Cc2cccc(C(F)(F)F)c2)NC(=O)[C@H](CC(=O)O)NC(=O)[C@H](Cc2ccc(OCC(=O)O)cc2)NC(=O)[C@H](CN2CCOCC2)NC(=O)CSC[C@@H](C(=O)N[C@@H](CCN)C(=O)NCCOCCOCC(=O)N[C@@H](CCC(=O)NCCOCCOCC(=O)NCCCCCCCCCCCCC(=O)O)C(=O)O)NC(=O)[C@H](CC(=O)O)NC(=O)[C@H](C(C)(C)O)NC(=O)[C@H](CC2CCCCC2)NC(=O)[C@H](CCN)NC1=O` [Example 1175] ({CH2CO}-[Ala(morpholin-4-yl)]Y(Carboxymethyl)D[Phe(3-CF3)][Phe(4-COOH)][Bip][Cit][NMeA][dL][Dab][Cha][Val(3-OH)]DC[Dab][AEEA][γGlu][AEEA]-{NH(CH2)12COOH}; thioether N-14): the IC50 came out at 48.8 nM.

For the compound `CC(C)C[C@H]1NC(=O)[C@H](C)N(C)C(=O)[C@H](CCCNC(N)=O)NC(=O)[C@H](Cc2ccc(-c3ccccc3)cc2)NC(=O)[C@H](Cc2ccc(C(=O)O)cc2)NC(=O)[C@H](Cc2cccc(C(F)(F)F)c2)NC(=O)[C@H](CC(=O)O)NC(=O)[C@H](Cc2ccc(OCC(=O)O)cc2)NC(=O)[C@H](CN2CCOCC2)NC(=O)CSC[C@@H](C(=O)N[C@@H](CCN)C(=O)NCCOCCOCC(=O)N[C@@H](CCC(=O)NCCOCCOCC(=O)NCCCCCCCCCCCCC(=O)O)C(=O)O)NC(=O)[C@H](CCC(=O)O)NC(=O)[C@H](C(C)C)NC(=O)[C@H](CC2CCCCC2)NC(=O)[C@H](CCN)NC1=O` [Example 1176] ({CH2CO}-[Ala(morpholin-4-yl)]Y(Carboxymethyl)D[Phe(3-CF3)][Phe(4-COOH)][Bip][Cit][NMeA][dL][Dab][Cha]VEC[Dab][AEEA][γGlu][AEEA]-{NH(CH2)12COOH}; thioether N-14), the IC50 amounted to 15.6 nM.

`CC(C)C[C@H]1NC(=O)[C@H](C)N(C)C(=O)[C@H](CCCNC(N)=O)NC(=O)[C@H](Cc2ccc(-c3ccccc3)cc2)NC(=O)[C@H](Cc2ccc(C(=O)O)cc2)NC(=O)[C@H](Cc2cccc(C(F)(F)F)c2)NC(=O)[C@H](CC(=O)O)NC(=O)[C@H](Cc2ccc(OCC(=O)O)cc2)NC(=O)[C@H](CN2CCOCC2)NC(=O)CSC[C@@H](C(=O)N[C@@H](CCN)C(=O)NCCOCCOCC(=O)N[C@@H](CCC(=O)NCCOCCOCC(=O)NCCCCCCCCCCCCC(=O)O)C(=O)O)NC(=O)[C@H](CO)NC(=O)[C@H](C(C)(C)O)NC(=O)[C@H](CC2CCCCC2)NC(=O)[C@H](CCN)NC1=O` [Example 1177] ({CH2CO}-[Ala(morpholin-4-yl)]Y(Carboxymethyl)D[Phe(3-CF3)][Phe(4-COOH)][Bip][Cit][NMeA][dL][Dab][Cha][Val(3-OH)]SC[Dab][AEEA][γGlu][AEEA]-{NH(CH2)12COOH}; thioether N-14): the IC50 stood at 27 nM.

Consider `CC(=O)NCCCC[C@@H]1NC(=O)[C@H](C(C)(C)O)NC(=O)[C@H](CC2CCCCC2)NC(=O)[C@H](CCN)NC(=O)[C@@H](CC(C)C)NC(=O)[C@H](C)N(C)C(=O)[C@H](CCCNC(N)=O)NC(=O)[C@H](Cc2ccc(-c3ccccc3)cc2)NC(=O)[C@H](Cc2ccc(C(=O)O)cc2)NC(=O)[C@H](Cc2cccc(C(F)(F)F)c2)NC(=O)[C@H](CC(=O)O)NC(=O)[C@H](Cc2ccc(OCC(=O)O)cc2)NC(=O)[C@H](CN2CCOCC2)NC(=O)CSC[C@@H](C(=O)N[C@@H](CCN)C(=O)NCCOCCOCC(=O)NC(CCC(=O)NCCOCCOCC(=O)NCCCCCCCCCCCCC(=O)O)C(=O)O)NC1=O` (stereo partly drawn) [Example 1178] ({CH2CO}-[Ala(morpholin-4-yl)]Y(Carboxymethyl)D[Phe(3-CF3)][Phe(4-COOH)][Bip][Cit][NMeA][dL][Dab][Cha][Val(3-OH)]K(Ac)C[Dab][AEEA][ξγGlu][AEEA]-{NH(CH2)12COOH}; thioether N-14), for which the IC50 turned out to be 12.4 nM.

`CC(C)C[C@H]1NC(=O)[C@H](C)N(C)C(=O)[C@H](Cc2ccc(C(=O)O)cc2)NC(=O)[C@H](Cc2ccc(-c3ccccc3)cc2)NC(=O)[C@H](Cc2ccc(C(=O)O)cc2)NC(=O)[C@H](Cc2cccc(C(F)(F)F)c2)NC(=O)[C@H](CC(=O)O)NC(=O)[C@H](Cc2ccc(OCC(=O)O)cc2)NC(=O)[C@H](CN2CCOCC2)NC(=O)CSC[C@@H](C(=O)N[C@@H](CCN)C(=O)NCCOCCOCC(=O)N[C@@H](CCC(=O)NCCOCCOCC(=O)NCCCCCCCCCCCCC(=O)O)C(=O)O)NC(=O)[C@H](CO)NC(=O)[C@H](C(C)(C)O)NC(=O)[C@H](CC2CCCCC2)NC(=O)[C@H](CCN)NC1=O` [Example 1180] ({CH2CO}-[Ala(morpholin-4-yl)]Y(Carboxymethyl)D[Phe(3-CF3)][Phe(4-COOH)][Bip][Phe(4-COOH)][NMeA][dL][Dab][Cha][Val(3-OH)]SC[Dab][AEEA][γGlu][AEEA]-{NH(CH2)12COOH}; thioether N-14): the IC50 is 91.8 nM.
